# Data taken from US20230146455A1, “TREATMENT OF INFLAMMATORY DISEASES WITH PEPTIDES AND PHARMACEUTICAL COMPOSITIONS” (Yuyu Pharma, Inc., priority 2020, published 2023).
# “And” between values parts separate entries of the source, which are not always exact repeats. Identical values can stand only once. Where a SMILES comes first, the peptide text is derived from it. [ ]: non-standard residue; d: D form. Hyp = O=C(O)[C@@H]1C[C@@H](O)CN1
# Test system: IL-2
# Assay: Example 8 main study Luminex, LPS hPBMCs: IL-2
# Format: cell-based, human
# Details: for LPS-induced IL-2 (in words): at as low as 5 μM, LPS 5 ug/mL 24 hrs
# Procedure: Human PBMCs were pretreated with YY-101, YDE-011, YDE-043 or reference compound; Xiidra® at various concentration (ranging from […] to 500 nM) for 2 h before stimulation. An equal volume of 0.5% DMSO was used as a vehicle control. Then, the cells were treated with LPS at 5 ug/ml, which was selected based on the pilot study. The supernatants from treated cells were harvested at 24 h and placed in a 96 well for Luminex cytokine & chemokine profiling using a Luminex 200 multiplex assay (Luminex; R&D system, USA).
# The main study arm with triplicate wells per group in a 24-well plate: • 1. Blank • 2. PBMC: 0.5% DMSO • 3. PBMC+LPS (5 ug/ml) • 4. PBMC+YY-101 500 nM • 5. PBMC+YY-101 50 nM • 6. PBMC+YY-101 5 nM • 7. PBMC+YY-101 0.5 nM • 8. PBMC+LPS (5 ug/ml)+Xiidra® 500 nM • 9. PBMC+LPS (5 ug/ml)+Xiidra® 50 nM • 10. PBMC+LPS (5 ug/ml)+Xiidra® 5 nM • 11. PBMC+LPS (5 ug/ml)+Xiidra® 0.5 nM • 12. PBMC+LPS (5 ug/ml)+Xiidra® 0.05 nM • 13. PBMC+LPS (5 ug/ml)+Xiidra® 0.005 nM • 14. PBMC+LPS (5 ug/ml)+YY-101 500 nM • 15. PBMC+LPS (5 ug/ml)+YY-101 50 nM • 16. PBMC+LPS (5 ug/ml)+YY-101 5 nM • 17. PBMC+LPS (5 ug/ml)+YY-101 0.5 nM • 18. PBMC+LPS (5 ug/ml)+YY-101 0.05 nM • 19. PBMC+LPS (5 ug/ml)+YY-101 0.005 nM • 20. PBMC+LPS (5 ug/ml)+YDE-011 500 nM • 21. PBMC+LPS (5 ug/ml)+YDE-011 50 nM • 22. PBMC+LPS (5 ug/ml)+YDE-011 5 nM • 23. PBMC+LPS (5 ug/ml)+YDE-011 0.5 nM • 24. PBMC+LPS (5 ug/ml)+YDE-011 0.05 nM • 25. PBMC+LPS (5 ug/ml)+YDE-011 0.005 nM • 26. PBMC+LPS (5 ug/ml)+YDE-043 500 nM • 27. PBMC+LPS (5 ug/ml)+YDE-043 50 nM • 28. PBMC+LPS (5 ug/ml)+YDE-043 5 nM • 29. PBMC+LPS (5 ug/ml)+YDE-043 0.5 nM • 30. PBMC+LPS (5 ug/ml)+YDE-043 0.05 nM • 31. PBMC+LPS (5 ug/ml)+YDE-043 0.005 nM
# Multiplex assay was used to measure 30 cytokines and chemokines. The 1:200 diluted cell supernatant and serial dilution of the standard were dispensed into a 96 well plate at 50 ul/well. Then, the pre-mixed cocktail of antibody-coated magnetic beads was dispensed at 50 ul/well and incubated at room temperature for 2 h in a horizontal orbital microplate shaker at 800±500 rpm. The beads were washed using a magnetic device to prevent loss. The biotin-antibody was dispensed in 50 ul of each well and incubated at room temperature for 1 h in a shaker at 800±500 rpm. After washing, streptavidin-PE was added at 50 ul/well and incubated at room temperature for 30 min in a shaker under the same conditions. Finally, after washing, wash buffer (100 ul/well) was added to the plate and incubated in a shaker for 2 min. The Luminex™ 200 setting were set according to the manufacturer's protocol. The data was calculated with a standard five-parameter logistic nonlinear regression analysis of the data (xPonent software 4.2, USA). Results were presented as concentration (ng/ml or pg/ml).
# [1] = PBMC + LPS(5 ug/ml) + compound 0.005 nM, 24 h
# [2] = PBMC + LPS(5 ug/ml) + compound 0.005 nM, 24 h, LPS alone Mean 80.5
# [3] = PBMC + LPS(5 ug/ml) + compound 0.005 nM, 24 h, LPS alone Mean 3988.7
# [4] = PBMC + LPS(5 ug/ml) + compound 0.05 nM, 24 h
# [5] = PBMC + LPS(5 ug/ml) + compound 0.05 nM, 24 h, LPS alone Mean 80.5
# [6] = PBMC + LPS(5 ug/ml) + compound 0.05 nM, 24 h, LPS alone Mean 3988.7
# [7] = PBMC + LPS(5 ug/ml) + compound 0.5 nM, 24 h
# [8] = PBMC + LPS(5 ug/ml) + compound 0.5 nM, 24 h, LPS alone Mean 80.5
# [9] = PBMC + LPS(5 ug/ml) + compound 0.5 nM, 24 h, LPS alone Mean 3988.7
# [10] = PBMC + LPS(5 ug/ml) + compound 5 nM, 24 h
# [11] = PBMC + LPS(5 ug/ml) + compound 5 nM, 24 h, LPS alone Mean 80.5
# [12] = PBMC + LPS(5 ug/ml) + compound 5 nM, 24 h, LPS alone Mean 3988.7
# [13] = PBMC + LPS(5 ug/ml) + compound 50 nM, 24 h
# [14] = PBMC + LPS(5 ug/ml) + compound 50 nM, 24 h, LPS alone Mean 80.5
# [15] = PBMC + LPS(5 ug/ml) + compound 50 nM, 24 h, LPS alone Mean 3988.7
# [16] = PBMC + LPS(5 ug/ml) + compound 500 nM, 24 h
# [17] = PBMC + LPS(5 ug/ml) + compound 500 nM, 24 h, LPS alone Mean 80.5
# [18] = PBMC + LPS(5 ug/ml) + compound 500 nM, 24 h, LPS alone Mean 3988.7
# [19] = PBMC + compound 0.05 uM, no LPS
structure (smiles),measurement,setting,value
CC(C)C[C@H](NC(=O)[C@H](CCC(N)=O)NC(=O)CNC(=O)[C@@H]1C[C@@H](O)CN1)C(=O)NCC(=O)O [YDE-043] (H-[Hyp]GQLG-OH; N-terminus and C-terminus assumed),"IL-2 Concentration, individual wells",[1],2239.1 pg/mL and 2317.3 pg/mL and 3058.1 pg/mL
same,"IL-2 MFI, individual wells",[1],58.0 and 59.0 and 68.5
same,"IL-2 MFI, Mean",[2],61.8
same,"IL-2 Concentration, Mean",[3],2538.2 pg/mL
same,"IL-2 Concentration, individual wells",[4],2004.2 pg/ml and 2239.1 pg/ml (2×)
same,"IL-2 MFI, individual wells",[4],55.0 and 58.0 (2×)
same,"IL-2 MFI, Mean",[5],57.0
same,"IL-2 Concentration, Mean",[6],2160.8 pg/mL
same,"IL-2 Concentration, individual wells",[7],2082.5 pg/mL and 2317.3 pg/mL and 2121.7 pg/mL
same,"IL-2 MFI, individual wells",[7],56.0 and 59.0 and 56.5
same,"IL-2 MFI, Mean",[8],57.2
same,"IL-2 Concentration, Mean",[9],2173.8 pg/mL
same,"IL-2 Concentration, individual wells",[10],2785.6 pg/mL and 2395.5 pg/mL and 2473.6 pg/mL
same,"IL-2 MFI, individual wells",[10],65.0 and 60.0 and 61.0
same,"IL-2 MFI, Mean",[11],62.0
same,"IL-2 Concentration, Mean",[12],2551.6 pg/mL
same,"IL-2 Concentration, individual wells",[13],2551.7 pg/mL and 2395.5 pg/mL and 2239.1 pg/mL
same,"IL-2 MFI, individual wells",[13],62.0 and 60.0 and 58.0
same,"IL-2 MFI, Mean",[14],60.0
same,"IL-2 Concentration, Mean",[15],2395.4 pg/mL
same,"IL-2 Concentration, individual wells",[16],2004.2 pg/mL and 2082.5 pg/mL and 2239.1 pg/mL
same,"IL-2 MFI, individual wells",[16],55.0 and 56.0 and 58.0
same,"IL-2 MFI, Mean",[17],56.3
same,"IL-2 Concentration, Mean",[18],2108.6 pg/mL
same,LPS-induced IL-2 (in words),,significantly reduced
CC(C)C[C@H](NC(=O)CNC(=O)[C@H](CC(=O)O)NC(=O)[C@H](CCC(N)=O)NC(=O)CNC(=O)[C@@H]1C[C@@H](O)CN1)C(=O)N[C@@H](C)C(=O)NCC(=O)N1CCC[C@H]1C(=O)N[C@@H](CCCCN)C(=O)O [YY-101] (H-[Hyp]GQDGLAGPK-OH; N-terminus and C-terminus assumed),"IL-2 Concentration, individual wells",[1],2746.7 pg/mL and 2707.7 pg/mL and 2551.7 pg/mL
same,"IL-2 MFI, individual wells",[1],64.5 and 64.0 and 62.0
same,"IL-2 MFI, Mean",[2],63.5
same,"IL-2 Concentration, Mean",[3],2668.7 pg/mL
same,"IL-2 Concentration, individual wells",[4],2785.6 pg/mL and 3174.7 pg/mL and 3058.1 pg/mL
same,"IL-2 MFI, individual wells",[4],65.0 and 70.0 and 68.5
same,"IL-2 MFI, Mean",[5],67.8
same,"IL-2 Concentration, Mean",[6],3006.1 pg/mL
same,"IL-2 Concentration, individual wells",[7],2863.5 pg/mL and 2785.6 pg/mL and 2824.6 pg/mL
same,"IL-2 MFI, individual wells",[7],66.0 and 65.0 and 65.5
same,"IL-2 MFI, Mean",[8],65.5
same,"IL-2 Concentration, Mean",[9],2824.6 pg/mL
same,"IL-2 Concentration, individual wells",[10],2473.6 pg/mL and 2629.7 pg/mL and 2941.4 pg/mL
same,"IL-2 MFI, individual wells",[10],61.0 and 63.0 and 67.0
same,"IL-2 MFI, Mean",[11],63.7
same,"IL-2 Concentration, Mean",[12],2681.6 pg/mL
same,"IL-2 Concentration, individual wells",[13],2473.6 pg/mL and 2707.7 pg/mL and 2863.5 pg/mL
same,"IL-2 MFI, individual wells",[13],61.0 and 64.0 and 66.0
same,"IL-2 MFI, Mean",[14],63.7
same,"IL-2 Concentration, Mean",[15],2681.6 pg/mL
same,"IL-2 Concentration, individual wells",[16],2707.7 pg/mL and 2863.5 pg/mL and 2551.7 pg/mL
same,"IL-2 MFI, individual wells",[16],64.0 and 66.0 and 62.0
same,"IL-2 MFI, Mean",[17],64.0
same,"IL-2 Concentration, Mean",[18],2707.6 pg/mL
same,"IL-2 Concentration, individual wells","PBMC + compound 0.5 nM, no LPS",173.5 pg/mL and 337.0 pg/mL
same,"IL-2 MFI, individual wells","PBMC + compound 0.5 nM, no LPS",32.0 and 34.0
same,"IL-2 MFI, Mean","PBMC + compound 0.5 nM, no LPS, 0.5% DMSO Mean 30.7",33.0
same,"IL-2 Concentration, Mean","PBMC + compound 0.5 nM, no LPS, 0.5% DMSO Mean 61.8",255.2 pg/mL
same,"IL-2 Concentration, individual wells","PBMC + compound 5 nM, no LPS",173.5 pg/mL
same,"IL-2 MFI, individual wells","PBMC + compound 5 nM, no LPS",32.0
same,"IL-2 MFI, Mean","PBMC + compound 5 nM, no LPS, 0.5% DMSO Mean 30.7",32.0
same,"IL-2 Concentration, Mean","PBMC + compound 5 nM, no LPS, 0.5% DMSO Mean 61.8",173.5 pg/mL
same,"IL-2 Concentration, individual wells",[19],659.4 pg/mL and 337.0 pg/mL
same,"IL-2 MFI, individual wells",[19],38.0 and 34.0
same,"IL-2 MFI, Mean","PBMC + compound 0.05 uM, no LPS, 0.5% DMSO Mean 30.7",36.0
same,"IL-2 Concentration, Mean","PBMC + compound 0.05 uM, no LPS, 0.5% DMSO Mean 61.8",498.2 pg/mL
same,"IL-2 Concentration, individual wells","PBMC + compound 50 nM, no LPS",48.8 pg/mL and 173.5 pg/mL
same,"IL-2 MFI, individual wells","PBMC + compound 50 nM, no LPS",30.5 and 32.0
same,"IL-2 MFI, Mean","PBMC + compound 50 nM, no LPS, 0.5% DMSO Mean 30.7",31.3
same,"IL-2 Concentration, Mean","PBMC + compound 50 nM, no LPS, 0.5% DMSO Mean 61.8",111.2 pg/mL
same,"IL-2 Concentration, individual wells","PBMC + compound 500 nM, no LPS",132.3 pg/mL and 255.5 pg/mL
same,"IL-2 MFI, individual wells","PBMC + compound 500 nM, no LPS",31.5 and 33.0
same,"IL-2 MFI, Mean","PBMC + compound 500 nM, no LPS, 0.5% DMSO Mean 30.7",32.3
same,"IL-2 Concentration, Mean","PBMC + compound 500 nM, no LPS, 0.5% DMSO Mean 61.8",193.9 pg/mL
same,LPS-induced IL-2 (in words),,significantly reduced
